Measured values taken from patent US20260285816A1, “Piperazinyl-Modified Quinazolinyl-Aryl Urea Derivative, And Preparation Method And Use Thereof” (Guangxi Normal University, priority 2025, published 2026).
Where two headings read alike, the source gives them in different places.

Assays:
Format in all cases: cell-based, human
143B cells = experiment: CCK-8 anti-proliferative assay, 143B; conditions: Homo sapiens, 143B, co-incubated 48 h, read-out: Anti-proliferative activity (IC50 ± standard deviation) 143B
Excerpt: (§1) The obtained quinazolinyl-aryl urea derivatives were screened for compounds with optimal activity using the following method. All cell lines employed in this experiment were of human origin, including: bladder cancer cells: J82, UM-UC-3, T24, 5637, pancreatic cancer cells: BxPC-3, PANC-1, osteosarcoma cells: 143B, MG-63, cervical cancer cells: HeLa, breast cancer cells: MCF-7, NSCLC cells: A549, hepatoblastoma cells: Hep G2, and ovarian cancer cells: SK-OV-3, as well as normal cell lines: immortalized ureteral epithelial cells (SV-HUC-1), embryonic lung fibroblasts (WI-38).
(§2) Experimental Procedure for Anti-Proliferative Activity Evaluation: The CCK-8 assay was employed. Cells in logarithmic growth phase were harvested, adjusted to appropriate density, and uniformly seeded into 96-well plates using a multichannel pipette (180 μL cell suspension containing complete medium per well, 5,000 cells/well). Blank control wells (containing basal medium, CCK-8 solution, and DMSO only) were set. Cells were incubated at 37° C. under 5% CO2. After 70% confluency was reached, test compounds (target compounds/positive controls) were added at final concentrations of 1, 2, 4, 6, 8, 12, 16, 24, and 30 μM (3 repeated wells per concentration). Compounds were pre-dissolved in DMSO, sterilized, and diluted with medium before adding 20 μL/well. After co-incubation for designated durations, 10 μL CCK-8 solution was added per well followed by 1-4 h incubation (different cells have different incubation times). The reaction was terminated, and OD (optical density) values at 450 nm were measured using a microplate reader. Inhibition rates were calculated as: (ODcontrol−ODtreatment)/ODcontrol×100%. Median inhibitory concentrations (IC50 values) were derived using Origin v8.0 software.

[1] = tested on: immortalized ureteral epithelial cells (SV-HUC-1); experiment: CCK-8 anti-proliferative assay, normal cells SV-HUC-1; conditions: Homo sapiens, SV-HUC1, normal cells, co-incubated 48 h, read-out: Anti-proliferative activity (IC50 ± standard deviation) SV-HUC-1
Protocol: (§3) The obtained quinazolinyl-aryl urea derivatives were screened for compounds with optimal activity using the following method.
as §2, with “The reaction was terminated, and OD (optical density) values at 450 nm were measured using a microplate reader.” left out

A549 cells = experiment: CCK-8 anti-proliferative assay, A549; conditions: Homo sapiens, A549, co-incubated 48 h, read-out: Anti-proliferative activity (IC50 ± standard deviation) A549
Summary of the method: (§4)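 CCK-8 viability assay: compounds at final 1, 2, 4, 6, 8, 12, 16, 24 and 30 μM (3 wells each) added once cultures of 5,000 cells/well reached 70% confluence at 37° C, 5% CO2.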

Hep G2 cells = experiment: CCK-8 anti-proliferative assay, Hep G2; conditions: Homo sapiens, HepG2, co-incubated 48 h, read-out: Anti-proliferative activity (IC50 ± standard deviation) Hep G2
Summary of the method: (§5)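 Human tumour cells were seeded at 5,000 per well and grown to 70% confluence. They were then treated in triplicate with compound at 1–30 μM (final) for the designated time. Viability was read by CCK-8 absorbance at 450 nm after 1–4 h, and IC50 was derived from % inhibition versus control.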

BxPC-3 cells = experiment: CCK-8 anti-proliferative assay, BxPC-3; conditions: Homo sapiens, BXPC-3, co-incubated 48 h, read-out: Anti-proliferative activity (IC50 ± standard deviation) BxPC-3
Summary of the method: as §5

HeLa cells = experiment: CCK-8 anti-proliferative assay, HeLa; conditions: Homo sapiens, HeLa, co-incubated 48 h, read-out: Anti-proliferative activity (IC50 ± standard deviation) HeLa
Protocol: as §3
as §2, with “The reaction was terminated, and OD (optical density) values at 450 nm were measured using a microplate reader.” left out

SK-OV-3 cells = experiment: CCK-8 anti-proliferative assay, SK-OV-3; conditions: Homo sapiens, SK-OV-3, co-incubated 48 h, read-out: Anti-proliferative activity (IC50 ± standard deviation) SK-OV-3
Protocol: as §3
as §2, with “The reaction was terminated, and OD (optical density) values at 450 nm were measured using a microplate reader.” left out

MCF-7 cells = experiment: CCK-8 anti-proliferative assay, MCF-7; conditions: Homo sapiens, MCF7, co-incubated 48 h, read-out: Anti-proliferative activity (IC50 ± standard deviation) MCF-7
Summary of the method: as §4

[2] = tested on: embryonic lung fibroblasts (WI-38); experiment: CCK-8 anti-proliferative assay, normal cells WI-38; conditions: Homo sapiens, read-out: Anti-proliferative activity (IC50 ± standard deviation) WI-38
Excerpt: as §1, §2

PANC-1 cells = experiment: CCK-8 anti-proliferative assay, PANC-1; conditions: Homo sapiens, PANC-1, co-incubated 48 h, read-out: Anti-proliferative activity (IC50 ± standard deviation) PANC-1
Summary of the method: as §5

5637 cells = experiment: CCK-8 anti-proliferative assay, 5637; conditions: Homo sapiens, co-incubated 48 h, read-out: Anti-proliferative activity (IC50 ± standard deviation) 5637
Summary of the method: as §4

MG-63 cells = experiment: CCK-8 anti-proliferative assay, MG-63; conditions: Homo sapiens, MG-63, co-incubated 48 h, read-out: Anti-proliferative activity (IC50 ± standard deviation) MG-63
Excerpt: as §1, §2

UM-UC-3 cells = experiment: CCK-8 anti-proliferative assay, UM-UC-3; conditions: Homo sapiens, UMUC3, co-incubated 48 h, read-out: Anti-proliferative activity (IC50 ± standard deviation) UM-UC-3
Protocol: as §3
as §2, with “The reaction was terminated, and OD (optical density) values at 450 nm were measured using a microplate reader.” left out

T24 cells = experiment: CCK-8 anti-proliferative assay, T24; conditions: Homo sapiens, T-24, co-incubated 48 h, read-out: Anti-proliferative activity (IC50 ± standard deviation) T24
Summary of the method: as §5

J82 cells = experiment: CCK-8 anti-proliferative assay, J82; conditions: Homo sapiens, J82, co-incubated 48 h, read-out: Anti-proliferative activity (IC50 ± standard deviation) J82
Protocol: as §3
as §2, with “The reaction was terminated, and OD (optical density) values at 450 nm were measured using a microplate reader.” left out

[3] = WI-38, Table 9, co-incubated 48 h
[4] = WI-38, Table 13, co-incubated 48 h

| IC50 (A549 cells; Table 8) [µM] | IC50 (BxPC-3 cells; Table 7) [µM] | IC50 (HeLa cells; Table 8) [µM] | IC50 (SK-OV-3 cells; Table 9) [µM] | IC50 (MCF-7 cells; Table 8) [µM] | IC50 (PANC-1 cells; Table 7) [µM] | IC50 (T24 cells; Table 6) [µM] | IC50 (A549 cells; Table 13) [µM] | IC50 (BxPC-3 cells; Table 11) [µM] | SMILES | IC50 (143B cells; Table 7) [µM] | IC50 ([1]; Table 9) [µM] | IC50 (Hep G2 cells; Table 8) [µM] | IC50 [2, 3] [µM] | IC50 (5637 cells; Table 6) [µM] | IC50 (MG-63 cells; Table 7) [µM] | IC50 (UM-UC-3 cells; Table 6) [µM] | IC50 (J82 cells; Table 6) [µM] | IC50 (143B cells; Table 11) [µM] | IC50 ([1]; Table 13) [µM] | IC50 (Hep G2 cells; Table 12) [µM] | further results |
| --- | --- | --- | --- | --- | --- | --- | --- | --- | --- | --- | --- | --- | --- | --- | --- | --- | --- | --- | --- | --- | --- |
| 10.9 ± 0.67 | 7.78 ± 0.53 | 6.32 ± 0.37 | 8.76 ± 0.74 | 6.64 ± 0.52 | 19.5 ± 1.53 | 6.83 ± 0.87 | – | – | COc1cc2ncnc(NCc3cccc(NC(=O)Nc4ccc(F)c(C(F)(F)F)c4)c3)c2cc1OCCCCCCN1CCN(CCN2CCOCC2)CC1 [Compound 8-1q] | 4.57 ± 0.44 | 7.61 ± 0.41 | 7.09 ± 0.35 | 7.97 ± 0.63 | 5.78 ± 0.69 | 5.81 ± 0.63 | 6.25 ± 0.88 | 4.26 ± 0.31 | – | – | – | – |
| 8.62 ± 0.55 | 7.39 ± 0.62 | 5.76 ± 0.57 | 8.51 ± 0.87 | 4.12 ± 0.15 | 11.9 ± 0.94 | 3.91 ± 0.34 | – | – | COc1cc2ncnc(NCc3cccc(NC(=O)Nc4ccc(Cl)c(C(F)(F)F)c4)c3)c2cc1OCCCCCCN1CCN(CCN2CCOCC2)CC1 [Compound 8-1r] | 5.41 ± 0.39 | 7.02 ± 0.53 | 5.59 ± 0.45 | 7.89 ± 0.66 | 3.59 ± 0.16 | 5.31 ± 0.46 | 6.14 ± 0.53 | 6.33 ± 0.61 | – | – | – | – |
| 12.6 ± 0.48 | 7.31 ± 0.76 | 6.81 ± 0.45 | 7.29 ± 0.66 | 10.3 ± 0.68 | 12.7 ± 0.71 | 6.95 ± 0.51 | – | – | COc1cc2ncnc(NCc3cccc(NC(=O)Nc4cc(C(F)(F)F)cc(C(F)(F)F)c4)c3)c2cc1OCCCCCCN1CCN(CCN2CCOCC2)CC1 [Compound 8-1s, N-(3-(((7-methoxy-6-((6-(4-(2-morpholinoethyl)piperazin-1-yl)hexyl)oxy)quinazolin-4-yl)amino)methyl)phenyl)-N′-(3,5-bis(trifluoromethyl)phenyl)urea] | 4.95 ± 0.69 | 7.31 ± 0.35 | 4.55 ± 0.47 | 7.71 ± 0.54 | 5.93 ± 0.44 | 7.17 ± 0.52 | 6.72 ± 0.53 | 5.63 ± 0.54 | – | – | – | – |

More lines, now with the values behind:

| SMILES | IC50 (A549 cells; Table 8) [µM] | IC50 (BxPC-3 cells; Table 7) [µM] | IC50 (HeLa cells; Table 8) [µM] | IC50 (SK-OV-3 cells; Table 9) [µM] | IC50 (MCF-7 cells; Table 8) [µM] | IC50 (PANC-1 cells; Table 7) [µM] | IC50 (T24 cells; Table 6) [µM] | IC50 (A549 cells; Table 13) [µM] | IC50 (BxPC-3 cells; Table 11) [µM] | IC50 (143B cells; Table 7) [µM] | IC50 ([1]; Table 9) [µM] | IC50 (Hep G2 cells; Table 8) [µM] | IC50 [2, 3] [µM] | IC50 (5637 cells; Table 6) [µM] | IC50 (MG-63 cells; Table 7) [µM] | IC50 (UM-UC-3 cells; Table 6) [µM] | IC50 (J82 cells; Table 6) [µM] | IC50 (143B cells; Table 11) [µM] | IC50 ([1]; Table 13) [µM] | IC50 (Hep G2 cells; Table 12) [µM] | further results |
| --- | --- | --- | --- | --- | --- | --- | --- | --- | --- | --- | --- | --- | --- | --- | --- | --- | --- | --- | --- | --- | --- |
| COc1cc2ncnc(NCc3cccc(NC(=O)NC4CCCCC4)c3)c2cc1OCCCCCCN1CCN(CCN2CCOCC2)CC1 [Compound 8-1v, N-(3-(((7-Methoxy-6-((6-(4-(2-morpholinoethyl)piperazin-1-yl)hexyl)oxy)quinazolin-4-yl)amino)methyl)phenyl)-N′-cyclohexylurea] | 16.5 ± 0.77 | 16.8 ± 1.25 | > 30 | > 30 | > 30 | > 30 | 15.8 ± 0.89 | – | – | 22.4 ± 1.63 | > 30 | 10.6 ± 0.94 | 15.4 ± 0.88 | 11.2 ± 0.97 | 15.6 ± 0.92 | 19 ± 0.34 | 13.9 ± 0.95 | – | – | – | – |
| COc1cc2ncnc(NCc3cccc(NC(=O)Nc4ccccc4)c3)c2cc1OCCCCCCN1CCC(CN2CCN(c3ccccn3)CC2)CC1 [Compound 8-2a, N-(3-(((7-methoxy-6-((6-(4-((4-(pyridin-2-yl)piperazin-1-yl)methyl)piperidin-1-yl)hexyl)oxy)quinazolin-4-yl)amino)methyl)phenyl)-N′-phenylurea] | – | – | – | – | – | – | – | > 30 | > 30 | – | – | – | – | – | – | – | – | > 30 | 26.4 ± 1.69 | 25.7 ± 1.81 | IC50 (HeLa cells; Table 12): > 30 µM; IC50 (SK-OV-3 cells; Table 12): 22.4 ± 1.33 µM; IC50 (MCF-7 cells; Table 12): 26.3 ± 1.46 µM; IC50 [2, 4]: 17.6 ± 0.72 µM; IC50 (PANC-1 cells; Table 11): > 30 µM; IC50 (5637 cells; Table 10): 16.2 ± 0.77 µM; IC50 (MG-63 cells; Table 11): 17.4 ± 1.38 µM; IC50 (UM-UC-3 cells; Table 10): 25.8 ± 1.81 µM; IC50 (T24 cells; Table 10): 15.8 ± 0.92 µM; IC50 (J82 cells; Table 10): > 30 µM |
| COc1cc2ncnc(NCc3cccc(NC(=O)Nc4ccccc4C)c3)c2cc1OCCCCCCN1CCC(CN2CCN(c3ccccn3)CC2)CC1 [Compound 8-2b, N-(3-(((7-methoxy-6-((6-(4-((4-(pyridin-2-yl)piperazin-1-yl)methyl)piperidin-1-yl)hexyl)oxy)quinazolin-4-yl)amino)methyl)phenyl)-N′-(2-methylphenyl)urea] | – | – | – | – | – | – | – | 5.47 ± 0.22 | 5.92 ± 0.38 | – | – | – | – | – | – | – | – | 6.47 ± 0.34 | 8.74 ± 0.63 | 4.04 ± 0.28 | IC50 (HeLa cells; Table 12): 5.72 ± 0.41 µM; IC50 (SK-OV-3 cells; Table 12): 6.21 ± 0.55 µM; IC50 (MCF-7 cells; Table 12): 7.25 ± 0.66 µM; IC50 [2, 4]: 9.02 ± 0.41 µM; IC50 (PANC-1 cells; Table 11): 14.5 ± 0.94 µM; IC50 (5637 cells; Table 10): 4.79 ± 0.43 µM; IC50 (MG-63 cells; Table 11): 6.44 ± 0.81 µM; IC50 (UM-UC-3 cells; Table 10): 7.03 ± 0.37 µM; IC50 (T24 cells; Table 10): 6.96 ± 0.85 µM; IC50 (J82 cells; Table 10): 6.86 ± 0.52 µM |
